Data on 18 molecules can be found in patent US20250136606A1, “MODULATORS OF TRPML, THEIR COMPOSITIONS AND METHODS OF USE” (Caraway Therapeutics, Inc., priority 2021, published 2025).

As usually defined, the EC50 is the concentration giving half of the maximal effect.

Format in all cases: cell-based
Holding throughout (conditions): fluorescent calcium assay

One assay addresses TRPML1 (Homo sapiens, UniProt Q9GZU1). The assay is described as follows: Fluorescent TRPML1 assay (Fluo4-AM calcium fluorescence in doxycycline-induced HEK-293 Trex cells). The gist of the method:
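EC50 values come from non-linear regression of percent activity, normalized to on-plate positive and negative controls, with fluorescence read at 480 nm excitation and 540 nm emission. Fluo4-AM-loaded (1 µM) doxycycline-induced HEK-293 Trex cells expressing mutated human TRPML1 were exposed in 10 mM calcium Ringer's to 6 nM–20 µM compound, in triplicate.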

Another assay addresses T1, TRPML2 (Homo sapiens, UniProt Q8IZK6).
T1 construct: expressed in transfected cells
T1 sequence (Q8IZK6 1-566): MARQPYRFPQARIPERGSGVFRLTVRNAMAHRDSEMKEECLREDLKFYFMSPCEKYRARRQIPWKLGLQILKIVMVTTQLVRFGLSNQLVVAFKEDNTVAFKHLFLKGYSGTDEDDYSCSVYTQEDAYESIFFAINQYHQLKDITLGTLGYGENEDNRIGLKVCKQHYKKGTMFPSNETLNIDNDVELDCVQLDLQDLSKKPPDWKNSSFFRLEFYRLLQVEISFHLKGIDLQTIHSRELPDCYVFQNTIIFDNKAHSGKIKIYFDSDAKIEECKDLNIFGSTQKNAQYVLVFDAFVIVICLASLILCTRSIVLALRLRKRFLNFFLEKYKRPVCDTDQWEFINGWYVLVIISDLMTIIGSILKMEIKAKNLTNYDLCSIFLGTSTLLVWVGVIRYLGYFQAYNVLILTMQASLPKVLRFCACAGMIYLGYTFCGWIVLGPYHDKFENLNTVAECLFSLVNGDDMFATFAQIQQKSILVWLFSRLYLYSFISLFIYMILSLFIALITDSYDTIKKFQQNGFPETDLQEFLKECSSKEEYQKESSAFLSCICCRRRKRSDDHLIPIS
The assay is described as follows: Fluorescent TRPML2 assay (performed as for TRPML1, substituting the TRPML2 subtype). The gist of the method: (§1)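 HEK-293 Trex, dox-induced (0.5 ug/mL), mutated for surface expression. Fluo4-AM 1 micromolar load ~60 min, dark; buffer modified Ringer's, 10 mM Ca. Cpds 20 micromolar–6 nanomolar final, half-log, n=3. Read ex 480/em 540; % activity vs controls; EC50 nonlinear fit.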

For a further assay, the target named is T2, TRPML3 (Homo sapiens, UniProt Q8TDD5).
T2 construct: expressed in transfected cells
T2 sequence (Q8TDD5 1-553): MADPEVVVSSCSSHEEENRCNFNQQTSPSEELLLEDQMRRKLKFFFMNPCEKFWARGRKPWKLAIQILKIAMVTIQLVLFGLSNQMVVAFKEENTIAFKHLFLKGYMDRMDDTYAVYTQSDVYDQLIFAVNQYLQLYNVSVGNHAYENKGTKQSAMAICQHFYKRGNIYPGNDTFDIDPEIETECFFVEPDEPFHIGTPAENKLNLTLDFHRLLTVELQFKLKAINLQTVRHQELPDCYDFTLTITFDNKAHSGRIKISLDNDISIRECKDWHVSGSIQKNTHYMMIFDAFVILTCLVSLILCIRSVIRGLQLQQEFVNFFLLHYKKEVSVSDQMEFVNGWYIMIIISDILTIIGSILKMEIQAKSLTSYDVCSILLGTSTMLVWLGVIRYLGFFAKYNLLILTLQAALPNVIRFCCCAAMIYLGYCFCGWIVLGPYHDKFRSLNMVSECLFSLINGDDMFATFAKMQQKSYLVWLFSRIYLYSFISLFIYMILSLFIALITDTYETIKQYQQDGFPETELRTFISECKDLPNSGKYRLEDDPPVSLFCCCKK
Description: Fluorescent TRPML3 assay (performed as for TRPML1, substituting the TRPML3 subtype). The gist of the method:
as §1

Sequence of TRPML1 (Q9GZU1 whole entry L15A/L16A/L577A/L578A, form open): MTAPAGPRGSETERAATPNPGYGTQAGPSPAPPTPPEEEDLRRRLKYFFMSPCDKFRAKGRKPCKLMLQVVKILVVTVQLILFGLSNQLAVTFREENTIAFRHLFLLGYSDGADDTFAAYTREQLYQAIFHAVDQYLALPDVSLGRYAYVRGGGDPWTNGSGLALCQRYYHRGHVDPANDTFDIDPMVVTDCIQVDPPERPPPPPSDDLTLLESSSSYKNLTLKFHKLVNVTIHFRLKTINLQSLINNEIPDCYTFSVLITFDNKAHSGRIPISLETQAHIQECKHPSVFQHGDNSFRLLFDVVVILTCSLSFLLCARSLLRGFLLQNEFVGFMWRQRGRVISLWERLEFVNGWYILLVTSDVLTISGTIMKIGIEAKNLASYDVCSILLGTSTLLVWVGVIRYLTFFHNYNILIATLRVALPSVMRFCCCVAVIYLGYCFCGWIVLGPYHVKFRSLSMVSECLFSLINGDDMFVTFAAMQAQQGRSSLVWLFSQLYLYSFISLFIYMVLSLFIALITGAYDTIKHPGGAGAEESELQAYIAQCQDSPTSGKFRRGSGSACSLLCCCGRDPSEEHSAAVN

As to `Cc1nccnc1-c1cn(-c2cc(F)cc(F)c2)c2ncnc(N3CCN(C(=O)OC(C)(C)CF)[C@H](C)C3)c12` [Compound 250, 1-fluoro-2-methylpropan-2-yl (R)-4-(7-(3,5-difluorophenyl)-5-(3-methylpyrazin-2-yl)-7H-pyrrolo[2,3-d]pyrimidin-4-yl)-2-methylpiperazine-1-carboxylate], the EC50 on TRPML1 is 500 to 2000 nM; at TRPML2 it was greater than 2000 nM; at TRPML3, 100 to 500 nM.
The like results for `Cc1nccnc1-c1cn(-c2cc(F)cc(F)c2)c2ncnc(N3CCN(C(=O)OC(C)C)[C@H](C)C3)c12` [Compound 251, isopropyl (R)-4-(7-(3,5-difluorophenyl)-5-(3-methylpyrazin-2-yl)-7H-pyrrolo[2,3-d]pyrimidin-4-yl)-2-methylpiperazine-1-carboxylate] were, in that order, greater than 2000 nM, greater than 2000 nM and 500 to 2000 nM.
Take `CC(C)OC(=O)N1C[C@H](C)N(c2ncnc3c2c(-c2ccccc2F)cn3-c2cnn(C)c2)C[C@H]1C` [Compound 252, isopropyl (2R,5S)-4-(5-(2-fluorophenyl)-7-(1-methyl-1H-pyrazol-4-yl)-7H-pyrrolo[2,3-d]pyrimidin-4-yl)-2,5-dimethylpiperazine-1-carboxylate]: the values for the half-maximal effective concentration (EC50) at TRPML1, on TRPML2 and at TRPML3 were 100 to 500 nM, greater than 2000 nM and 100 to 500 nM, respectively.
For the molecule `C[C@H]1CN(C(=O)OC(C)(C)C)CCN1c1ncnc2c1c(N1CCCC1)cn2-c1cc(F)cc(F)c1` [Compound 253, tert-butyl (S)-4-(7-(3,5-difluorophenyl)-5-(pyrrolidin-1-yl)-7H-pyrrolo[2,3-d]pyrimidin-4-yl)-3-methylpiperazine-1-carboxylate], the EC50 on TRPML1 was less than 100 nM; at TRPML2 it was 100 to 500 nM; at TRPML3, less than 100 nM.
For `C[C@@H]1CN(c2ncnc3c2c(-c2ccccc2F)cn3-c2cnn(C)c2)[C@@H](C)CN1C(=O)OCC(F)(F)F` [Compound 254, 2,2,2-trifluoroethyl (2R,5S)-4-(5-(2-fluorophenyl)-7-(1-methyl-1H-pyrazol-4-yl)-7H-pyrrolo[2,3-d]pyrimidin-4-yl)-2,5-dimethylpiperazine-1-carboxylate], the EC50 was 100 to 500 nM at TRPML1, greater than 2000 nM at TRPML2 and 100 to 500 nM on TRPML3.
Take `C[C@@H]1CN(C(=O)OC(C)(C)C)CCN1c1ncnc2c1c(N1CCCC1)cn2-c1cc(F)cc(F)c1` [Compound 255, tert-butyl (R)-4-(7-(3,5-difluorophenyl)-5-(pyrrolidin-1-yl)-7H-pyrrolo[2,3-d]pyrimidin-4-yl)-3-methylpiperazine-1-carboxylate]: the values for the 50% effective concentration (EC50) at TRPML1, on TRPML2 and at TRPML3 were 100 to 500 nM, 500 to 2000 nM and 100 to 500 nM, respectively.
As to `CC[C@@H]1CN(c2ncnc3c2c(C2CC2)cn3-c2cc(F)cc(F)c2)CCN1C(=O)OC(C)(C)C` [Compound 256, tert-butyl (R)-4-(5-cyclopropyl-7-(3,5-difluorophenyl)-7H-pyrrolo[2,3-d]pyrimidin-4-yl)-2-ethylpiperazine-1-carboxylate], the EC50 at TRPML1 was less than 100 nM; on TRPML2 it was 500 to 2000 nM; on TRPML3 it was less than 100 nM.
Regarding `CC[C@H]1CN(c2ncnc3c2c(C2CC2)cn3-c2cc(F)cc(F)c2)CCN1C(=O)OC(C)(C)C` [Compound 257, tert-Butyl (S)-4-(5-cyclopropyl-7-(3,5-difluorophenyl)-7H-pyrrolo[2,3-d]pyrimidin-4-yl)-2-ethylpiperazine-1-carboxylate], the EC50 is 100 to 500 nM on TRPML1, 500 to 2000 nM on TRPML2 and 100 to 500 nM on TRPML3.
For the molecule `CC(C)(C)OC(=O)N1CCN(c2ncnc3c2c(C2CC2)cn3-c2cc(F)cc(F)c2)CC12CC2` [Compound 258, tert-Butyl 7-(5-cyclopropyl-7-(3,5-difluorophenyl)-7H-pyrrolo[2,3-d]pyrimidin-4-yl)-4,7-diazaspiro[2.5]octane-4-carboxylate], the results for the EC50 on TRPML1, at TRPML2 and at TRPML3 were less than 100 nM, 500 to 2000 nM and less than 100 nM, respectively.
Turning to `C[C@H]1CN(C(=O)OC(C)(C)C)CCN1c1ncnc2c1c(C1CC1)cn2-c1cncc(C#N)c1` [Compound 259], the values for the EC50 at TRPML1, on TRPML2 and on TRPML3 were 100 to 500 nM, 500 to 2000 nM and 100 to 500 nM, respectively.
Turning to `C[C@H]1CN(C(=O)OC(C)(C)C)CCN1c1ncnc2c1c(C1CC1)cn2-c1cc(C#N)ccn1` [Compound 260], the EC50 on TRPML1, on TRPML2 and at TRPML3 was less than 100 nM throughout.
`C[C@H]1CN(C(=O)OC(C)(C)C)CCN1c1ncnc2c1c(C1CCOCC1)nn2-c1ccccc1` [Compound 261, tert-butyl (S)-3-methyl-4-(1-phenyl-3-(tetrahydro-2H-pyran-4-yl)-1H-pyrazolo[3,4-d]pyrimidin-4-yl)piperazine-1-carboxylate]: the EC50 on TRPML1 was 500 to 2000 nM; at TRPML2, greater than 2000 nM; at TRPML3, 500 to 2000 nM.
Consider `C[C@@H]1CN(c2ncnc3c2c(N2CCC[C@@H]2C)cn3-c2cccc(Cl)c2)CCN1C(=O)OC(C)(C)C` [Compound 262, tert-butyl (R)-4-(7-(3-chlorophenyl)-5-((S)-2-methylpyrrolidin-1-yl)-7H-pyrrolo[2,3-d]pyrimidin-4-yl)-2-methylpiperazine-1-carboxylate], for which the EC50 at TRPML1 is less than 100 nM; on TRPML2 it was 500 to 2000 nM; on TRPML3 it was 100 to 500 nM.
Turning to `COc1cccc(-n2cc(C3CC3)c3c(N4CCN(C(=O)OC(C)(C)C(F)(F)F)C[C@@H]4C)ncnc32)c1` [Compound 263, 1,1,1-trifluoro-2-methylpropan-2-yl (S)-4-(5-cyclopropyl-7-(3-methoxyphenyl)-7H-pyrrolo[2,3-d]pyrimidin-4-yl)-3-methylpiperazine-1-carboxylate], the results for the EC50 at TRPML1, on TRPML2 and at TRPML3 were 100 to 500 nM, 500 to 2000 nM and 100 to 500 nM, respectively.
For the molecule `COc1cc(OC(F)(F)F)cc(-n2cc(C3CC3)c3c(N4CCN(C(=O)OC(C)(C)C)C[C@@H]4C)ncnc32)c1` [Compound 264, tert-butyl (S)-4-(5-cyclopropyl-7-(3-methoxy-5-(trifluoromethoxy)phenyl)-7H-pyrrolo[2,3-d]pyrimidin-4-yl)-3-methylpiperazine-1-carboxylate], the EC50 was 100 to 500 nM on TRPML1, 500 to 2000 nM on TRPML2 and 100 to 500 nM on TRPML3.
In the case of `C[C@H]1CN(C(=O)OC(C)(C)C(F)(F)F)CCN1c1ncnc2c1c(C1CC1)cn2-c1cccc(OC(F)(F)F)c1` [Compound 265, 1,1,1-trifluoro-2-methylpropan-2-yl (S)-4-(5-cyclopropyl-7-(3-(trifluoromethoxy)phenyl)-7H-pyrrolo[2,3-d]pyrimidin-4-yl)-3-methylpiperazine-1-carboxylate], the EC50 at TRPML1 was less than 100 nM; at TRPML2, 100 to 500 nM; at TRPML3, less than 100 nM.
Regarding `C[C@H]1CN(C(=O)OC(C)(C)C(F)(F)F)CCN1c1ncnc2c1c(C1CC1)cn2-c1cccc(C#N)c1` [Compound 266, 1,1,1-trifluoro-2-methylpropan-2-yl (S)-4-(7-(3-cyanophenyl)-5-cyclopropyl-7H-pyrrolo[2,3-d]pyrimidin-4-yl)-3-methylpiperazine-1-carboxylate], the values for the EC50 on TRPML1, at TRPML2 and at TRPML3 were less than 100 nM, 500 to 2000 nM and less than 100 nM, respectively.
As to `C[C@H]1CN(C(=O)OC(C)(C)C)CCN1c1ncnc2c1c(-c1nccnc1F)cn2-c1cccc(Cl)c1` [Compound 267, tert-butyl (S)-4-(7-(3-chlorophenyl)-5-(3-fluoropyrazin-2-yl)-7H-pyrrolo[2,3-d]pyrimidin-4-yl)-3-methylpiperazine-1-carboxylate], the EC50 was 100 to 500 nM at TRPML1, 100 to 500 nM on TRPML2 and less than 100 nM on TRPML3.
